Test results: US20230280334A1, “CDC20 VARIANTS RESISTANT TO ANTI-MITOTIC DRUGS AND RELATED METHODS AND COMPOSITIONS” (Whitehead Institute for Biomedical Research, priority 2021, published 2023)

How the values were obtained:
HeLa cells = assay: Time-lapse mitotic timing / mitotic arrest duration in HeLa cells; assay type: cell-based, human; details: for median arrest time / median mitotic arrest duration: HeLa; for median arrest time: 10 µM STLC (FIG. 6D); for median mitotic arrest duration: 10 µM STLC (FIG. 5E); for Mitotic time (min), HeLa: in the presence of 10 µM STLC with the indicated drug or RNAi treatment, mean ± standard deviation, two replicates
Procedure: (§1) Mitotic arrest duration in the presence of 10 µM STLC for control HeLa compared to the ΔM1 and M1-stop mutant cell lines with the indicated drug or RNAi treatment (see FIGS. 3F, 9D). Indicated is the mean mitotic duration ± standard deviation across two experimental replicates. Statistics from Mann-Whitney Test (**** = p < 0.0001, NS = not significant).
(§2) HeLa, hTERT-RPE1, U2OS, and A549 cell lines were cultured in Dulbecco’s modified Eagle medium (DMEM) supplemented with 10% fetal bovine serum (FBS), 100 U/mL penicillin and streptomycin, and 2 mM L-glutamine at 37° C. with 5% CO2. Doxycycline-inducible cell lines were cultured in medium containing FBS certified tetracycline free. Cas9 expression in inducible CRISPR/Cas9 cell lines was induced with 1 µg/ml doxycycline hyclate (##) at 24 hr interval for 2 days. Other drugs used on human cells were Nocodazole (##, 330 nM), S-trityl-L-cysteine (STLC, ##, 10 µM), Taxol (##, 1 µM), GSK923295 (CENP-E inhibitor, ##, 100 nM), proTAME (APC/Ci, ##, 12 µM), AZ-3146 (Mps1i, ##, 4 µM) unless concentration indicated otherwise in figure legend. Cells were enriched in mitosis with treatment with 330 nM nocodazole for 16-17 hrs. Cell lines were tested monthly for mycoplasma contamination.
(§3) Cells were later moved to CO2-independent media (##) before imaging at 37° C. Phase contrast images were acquired on a Nikon eclipse microscope equipped with a charge-coupled device (CCD) camera (Clara, Andor) or a CMOS camera (##) using a Plan Fluor 20X/0.5 NA objective at either 5 min or 10 min intervals. Time-lapse movies were analyzed using Fiji (ImageJ, NIH), ilastik (##) and CellProfiler (##). Image brightness and contrast was adjusted in Fiji, pixel-based classification was performed on individual images using ilastik and the resulting probability map images were processed by CellProfiler to identify and track mitotic cells. Each mitotic cell was then confirmed manually and the mitotic duration was determined as the time from cell rounding at mitotic entry to cell flattening after mitotic exit.

U2OS cells = assay: Time-lapse mitotic arrest duration in U2OS cells; assay type: cell-based, human; details: for median arrest time: U2OS, 10 µM STLC (FIG. 6D)
Procedure: (§4) FIGS. 6A-6D show downstream in-frame Cdc20 translation initiation influences the mitotic slippage behavior of cancer cell lines. (FIG. 6A) Mitotic arrest duration of individual HeLa, U2OS, or A549 cells treated with 10 µM STLC alone or with a combination of STLC and siRNA treatment (either control siRNAs or Cdc20 siRNAs). Cells entering mitosis in the first 600 min (HeLa) or 700 min (U2OS/A549) of time lapse experiments were included in analyses. Open red circles indicate cells that exit mitosis. Closed black circles indicate cells that remained arrested in mitosis till the end of the time lapse. Blue circles indicate cells that die in mitosis. Bars correspond to median. Indicated are the median mitotic duration times across two experimental replicates. (FIG. 6B) Western blot of mitotically-enriched U2OS cells expressing endogenous Cdc20 protein or upon Cdc20 replacement with either wild-type CDC20 cDNA or a CDC20 M43L M88L mutant construct. Cells were enriched in mitosis with 10 µM STLC for 18 hrs. Cdc20 protein was detected using antibodies recognizing the human Cdc20 C-terminus (aa 450-499). β-actin was used as loading control. (FIG. 6C) Western blot similar to (B) for A549 cells except that ectopic constructs were induced with 50 ng/ml doxycycline. (FIG. 6D) Top, schematic illustrating the Cdc20 replacement strategy with siRNA-resistant 5′ UTR-CDC20 cDNA constructs from a doxycycline-inducible promoter combined with depletion of endogenous Cdc20 protein by siRNA treatment. Cells were treated with 10 ng/ml (HeLa/U2OS) or 50 ng/ml (A549) doxycycline. […]
(§5) Cells were later moved to CO2-independent media (##) before imaging at 37° C. […] Time-lapse movies were analyzed using Fiji (ImageJ, NIH), ilastik (##) and CellProfiler (##). […] Each mitotic cell was then confirmed manually and the mitotic duration was determined as the time from cell rounding at mitotic entry to cell flattening after mitotic exit.

A549 cells = assay: Time-lapse mitotic arrest duration in A549 cells; assay type: cell-based, human; details: for median arrest time: 10 µM STLC (FIG. 6D)
Procedure: as §4, §5

[1] = tested on: ΔM1 mutant cell line (HeLa lacking the canonical M1 ATG start codon of CDC20); assay: Time-lapse mitotic arrest duration in ΔM1 mutant cell line; assay type: cell-based, human; details: for Mitotic time (min), ΔM1: in the presence of 10 µM STLC with the indicated drug or RNAi treatment, mean ± standard deviation, two replicates; for mitotic arrest / mitotic exit behaviour in the presence of STLC: ΔM1 cells, 10 µM STLC alone or with the named agent
Procedure: as §1, §2
(§6) Stable clonal cell lines lacking the canonical full-length Cdc20 protein were obtained by transfecting HeLa cells with pX330-based plasmids [Cong 2013] expressing spCas9 and either the sgM1 (for ΔM1 mutant) or the sgExon1 guide RNA (for M1-stop mutant). pX330-based plasmids were transfected using Xtremegene-9 (##) together with a mCherry-expressing plasmid and mCherry-positive cells were fluorescence activated cell-sorted into 96 well plates with one cell per well. Clones were screened for successful gene editing and the CDC20 allele sequence information was determined by next-generation sequencing (Genewiz Amplicon-EZ).
as §3

[2] = tested on: M1-stop mutant cell line (HeLa lacking full-length Cdc20); assay: Time-lapse mitotic arrest duration in M1-stop mutant cell line; assay type: cell-based, human; details: for mitotic arrest / mitotic exit behaviour in the presence of STLC: M1-stop cells, 10 µM STLC alone or with the named agent; for Mitotic time (min), M1-stop: in the presence of 10 µM STLC with the indicated drug or RNAi treatment, mean ± standard deviation, two replicates
Procedure: as §1, §2, §6, §3

HEC-6 cells = assay: Mitotic arrest duration in HEC-6 cells; assay type: cell-based; details: 10 µM STLC (FIG. 14C)
Source text: (FIG. 14B) HEC-6 cells express reduced levels of full-length Cdc20 protein and thus higher relative levels of the alternative Cdc20 isoforms, compared to control HeLa cells.

[3] = Cdc20 replacement with Cdc20 M43L M88L
[4] = Cdc20 replacement with wild-type CDC20 construct

## N[C@@H](CSC(c1ccccc1)(c1ccccc1)c1ccccc1)C(=O)O [STLC, S-trityl-L-cysteine]
HeLa cells; [3]
  median arrest time: 2110 min
HeLa cells; [4]
  median arrest time: 1755 min
HeLa cells; endogenous Cdc20 replaced with altATGmutx2 mutant construct
  median mitotic arrest duration: 1370 min
HeLa cells; endogenous Cdc20 replaced with wild-type siRNA-resistant CDC20 construct
  median mitotic arrest duration: 1810 min
HeLa cells; STLC-treated HeLa, 10 µM STLC alone (FIG. 6A)
  median mitotic arrest time: 1645 min
HeLa cells; control HeLa, 10 µM STLC, time-lapse (FIG. 3A)
  time arrested in mitosis after mitotic entry: > 10 h
HeLa cells; listed as STLC/DMSO
  Mitotic time (min), HeLa: 780±203 (n=103) min
HeLa cells; listed as STLC/siCtrl
  Mitotic time (min), HeLa: 805±168 (n=122) min
U2OS cells; STLC-treated U2OS, 10 µM STLC alone (FIG. 6A)
  median mitotic arrest time: 805 min
U2OS cells; [3]
  median arrest time: 1100 min
U2OS cells; [4]
  median arrest time: 690 min
A549 cells; A549, Cdc20 replacement with Cdc20 M43L M88L
  median arrest time: 1140 min
A549 cells; A549, Cdc20 replacement with wild-type CDC20 construct
  median arrest time: 920 min
A549 cells; STLC-treated A549, 10 µM STLC alone (FIG. 6A)
  median mitotic arrest time: 780 min
[1]; listed as STLC/DMSO
  Mitotic time (min), ΔM1: 60±24 (n=97) min
[1]; listed as STLC/siCtrl
  Mitotic time (min), ΔM1: 65±37 (n=88) min
[1]
  mitotic arrest / mitotic exit behaviour in the presence of STLC: exit mitosis within a few hours
[2]
  mitotic arrest / mitotic exit behaviour in the presence of STLC: exit mitosis within a few hours
[2]; listed as STLC/DMSO
  Mitotic time (min), M1-stop: 67±12 (n=85) min
[2]; listed as STLC/siCtrl
  Mitotic time (min), M1-stop: 70±18 (n=90) min
HEC-6 cells
  mitotic arrest duration compared to control HeLa cells: reduced mitotic arrest duration compared to control HeLa cells

## COC(=O)[C@H](CCCN=C(NC(=O)OCOC(=O)Cc1ccccc1)NC(=O)OCOC(=O)Cc1ccccc1)NS(=O)(=O)c1ccc(C)cc1 [proTAME]
[1]
  mitotic arrest / mitotic exit behaviour in the presence of STLC: suppressed the premature mitotic exit
[2]
  mitotic arrest / mitotic exit behaviour in the presence of STLC: suppressed the premature mitotic exit

## AZ3146
[1]
  mitotic arrest / mitotic exit behaviour in the presence of STLC: not exacerbated further
[2]
  mitotic arrest / mitotic exit behaviour in the presence of STLC: further reduce the arrest
